{"source": "ChEMBL document CHEMBL4837240", "about": "(J Med Chem, 2021)", "key": {"[1]": {"biological_target": "Platelet-derived growth factor receptor beta (Homo sapiens, UniProt P09619)", "sequence (P09619 whole entry)": "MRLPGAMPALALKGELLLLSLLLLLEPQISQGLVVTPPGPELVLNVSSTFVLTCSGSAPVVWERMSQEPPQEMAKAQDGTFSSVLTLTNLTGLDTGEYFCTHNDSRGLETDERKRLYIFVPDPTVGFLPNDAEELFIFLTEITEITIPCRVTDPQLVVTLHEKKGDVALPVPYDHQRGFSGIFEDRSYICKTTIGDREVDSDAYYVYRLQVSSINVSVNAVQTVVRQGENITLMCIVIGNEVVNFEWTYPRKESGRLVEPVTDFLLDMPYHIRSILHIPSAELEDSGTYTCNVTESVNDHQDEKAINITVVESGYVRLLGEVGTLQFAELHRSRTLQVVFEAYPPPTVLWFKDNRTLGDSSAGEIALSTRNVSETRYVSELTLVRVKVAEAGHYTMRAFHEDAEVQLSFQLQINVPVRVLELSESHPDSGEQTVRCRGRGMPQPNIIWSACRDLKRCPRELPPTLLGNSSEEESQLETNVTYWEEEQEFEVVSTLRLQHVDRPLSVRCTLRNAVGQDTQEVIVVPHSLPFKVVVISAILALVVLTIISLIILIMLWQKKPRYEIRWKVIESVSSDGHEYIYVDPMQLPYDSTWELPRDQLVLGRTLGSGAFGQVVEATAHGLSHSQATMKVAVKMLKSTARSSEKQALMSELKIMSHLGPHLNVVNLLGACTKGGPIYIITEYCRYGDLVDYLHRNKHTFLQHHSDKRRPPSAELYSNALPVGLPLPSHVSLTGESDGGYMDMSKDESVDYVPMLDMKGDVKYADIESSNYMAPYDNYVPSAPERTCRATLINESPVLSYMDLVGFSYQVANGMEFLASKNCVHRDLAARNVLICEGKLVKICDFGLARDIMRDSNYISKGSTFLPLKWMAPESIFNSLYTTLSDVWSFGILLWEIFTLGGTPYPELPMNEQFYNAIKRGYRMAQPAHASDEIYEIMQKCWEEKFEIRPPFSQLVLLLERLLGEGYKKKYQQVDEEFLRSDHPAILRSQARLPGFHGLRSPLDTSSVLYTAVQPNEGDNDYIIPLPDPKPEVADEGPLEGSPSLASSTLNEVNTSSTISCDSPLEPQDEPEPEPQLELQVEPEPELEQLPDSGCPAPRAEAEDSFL", "assay": "Inhibition of PDGFRbeta (unknown origin)"}, "[2]": {"biological_target": "Platelet-derived growth factor receptor alpha (Homo sapiens, UniProt P16234)", "sequence (P16234 whole entry)": "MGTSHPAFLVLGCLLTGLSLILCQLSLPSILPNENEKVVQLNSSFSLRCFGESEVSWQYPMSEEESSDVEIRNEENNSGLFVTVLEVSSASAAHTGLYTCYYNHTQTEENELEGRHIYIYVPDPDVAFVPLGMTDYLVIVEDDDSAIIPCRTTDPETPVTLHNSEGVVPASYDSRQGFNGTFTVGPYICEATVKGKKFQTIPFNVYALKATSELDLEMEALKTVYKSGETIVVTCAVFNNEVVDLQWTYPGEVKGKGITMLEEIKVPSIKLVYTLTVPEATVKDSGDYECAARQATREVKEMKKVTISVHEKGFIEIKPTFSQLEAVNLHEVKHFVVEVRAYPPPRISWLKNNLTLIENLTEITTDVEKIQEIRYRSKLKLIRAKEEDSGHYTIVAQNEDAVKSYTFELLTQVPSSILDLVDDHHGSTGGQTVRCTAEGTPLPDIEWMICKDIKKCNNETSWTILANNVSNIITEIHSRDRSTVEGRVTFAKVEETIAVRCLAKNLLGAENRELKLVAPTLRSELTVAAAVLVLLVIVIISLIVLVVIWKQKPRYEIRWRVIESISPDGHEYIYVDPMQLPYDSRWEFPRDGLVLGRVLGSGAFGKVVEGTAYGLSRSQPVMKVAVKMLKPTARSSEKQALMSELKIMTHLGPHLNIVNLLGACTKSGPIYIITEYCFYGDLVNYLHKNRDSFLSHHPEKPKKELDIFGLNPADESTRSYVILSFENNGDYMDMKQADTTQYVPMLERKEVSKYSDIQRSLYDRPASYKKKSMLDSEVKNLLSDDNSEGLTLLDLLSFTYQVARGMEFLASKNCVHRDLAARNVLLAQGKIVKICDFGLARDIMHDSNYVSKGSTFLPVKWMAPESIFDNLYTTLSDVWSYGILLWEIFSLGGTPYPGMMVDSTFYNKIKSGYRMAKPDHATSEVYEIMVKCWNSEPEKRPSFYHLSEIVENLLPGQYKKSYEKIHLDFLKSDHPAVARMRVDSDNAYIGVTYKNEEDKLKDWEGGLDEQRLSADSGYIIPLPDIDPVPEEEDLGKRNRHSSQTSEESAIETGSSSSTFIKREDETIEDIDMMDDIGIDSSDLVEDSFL", "assay": "Inhibition of PDGFRalpha (unknown origin)"}}}
{"smiles": "COc1cc2nccc(Oc3ccc(NC(=O)NC4CC4)c(Cl)c3)c2cc1C(N)=O", "note": "[LENVATINIB]", "values": [{"measurement": "IC50", "setting": "[1]", "result": 39, "unit": "nM"}, {"measurement": "IC50", "setting": "[2]", "result": 51, "unit": "nM"}]}
